Results: PMC6150245 (Molecules : A Journal of Synthetic Chemistry and Natural …, 2017)
Converted amounts (≈) assume the structure as drawn. “Also recorded” adds a separate entry of the source. Like-named read-outs stand apart in the source and are kept apart here.

Columns and labels:
[1] = test system: human red blood cells; experiment: Hemolysis assay; format: cell-based; details: 1% (v/v) human erythrocytes in Tris-saline pH 7.4, 1 h, 37 °C, absorbance 405 nm, triplicate
Description: Peptide hemolysis assays were performed as previously described by Castro et al.. Briefly, freshly prepared human red blood cells (RBCs) were washed three times with 0.01 M Tris-HCl (pH 7.4) containing 0.15 M NaCl (Tris-saline). A suspension of 1% (v/v) erythrocytes was made with packed RBCs resuspended in Tris-saline. Peptides were dissolved in Tris-saline at an initial concentration of […] and serially diluted in the same buffer to determine the concentration that triggered 50% hemolysis (HC50). As the positive control (100% lysis), 1% (v/v) Triton X-100 solution was used. After 1 h of incubation at 37 °C, the samples were centrifuged at 3000× g for 5 min. Then, 100 µL aliquots of the supernatant were transferred to 96-well microplates, and the absorbance was determined at 405 nm. The assay was performed in triplicates.

[2] = test system: E. coli ATCC25922; experiment: MIC, microdilution in MH broth (initial screening); format: cell-based, Escherichia coli; details: 24 h, 37 °C, resazurin, triplicate
Description: (§1) The minimum inhibitory concentrations (MIC) were determined following the Clinical and Laboratory Standards Institute (CLSI) recommendations. Antibacterial and antifungal activity tests were performed using the microdilution method. For initial screening, peptides were tested against C. albicans ATCC18804, E. coli ATCC25922, and S. aureus ATCC25923. Briefly, bacterial cells in MH broth (80 μL aliquots containing 1.5 × 10^7 CFU) were incubated with synthetic peptides (serial dilution from 512 to 1 μM) dissolved in Milli-Q water. After incubation for 24 h at 37 °C, the microtiter plates were analyzed visually by addition of resazurin. For the antifungal assays, the culture medium was RPMI 1640 buffered with L-glutamine (pH 7.2), 0.165 M morpholinepropanesulfonic acid (MOPS), and 2% glucose. Cell suspensions (final concentration of 1 × 10^3–2.5 × 10^3 CFU/mL) were inoculated on a microdilution plate previously prepared with serially diluted synthetic peptides (128–1 μM). The plates were incubated for 48 h at 37 °C. Each assay was performed in triplicates. Additionally, amphotericin B and fluconazole were used as the control drugs. MIC was defined as the lowest concentration of peptide at which no growth was detected.

[3] = test system: C. albicans ATCC18804; experiment: Antifungal MIC, microdilution in RPMI 1640; format: cell-based, Candida albicans; details: C. albicans ATCC18804, RPMI 1640, 48 h, 37 °C, peptides 128-1 µM, triplicate
Description: as §1

[4] = test system: S. aureus ATCC25923; experiment: MIC, microdilution in MH broth (initial screening); format: cell-based, Staphylococcus aureus; details: 24 h, 37 °C, resazurin, triplicate
Description: as §1

[5] = test system: S. aureus SA88; format: cell-based, Staphylococcus aureus
Description: (§2) After confirming antibacterial activity, the peptides were tested against gram-positive and gram-negative multidrug-resistant bacteria, including strains of clinical origin. The peptides, p-BthTX-I, des-Lys^12/(p-BthTX-I)2, and Lys^13-(p-BthTX-I)2 were serially diluted (512–1 μM) in cation-adjusted BBL MH II broth (CAMHB; Becton, Dickson and Co., Sparks, MD, USA) as described by CLSI. Bacteria at 5.0 × 10^5 CFU/mL were added to the media and incubated for 24 h at 37 °C. […] Assays were performed in duplicates, and sterile broth was used as the negative control. To determine the minimal bactericidal concentration (MBC), 100 µL from each well of the MIC assay plates that inhibited bacterial growth were sub-cultured onto MH agar (MHA) plates. […] If the ratio of MBC/MIC was >4, the activity of the peptide was considered bacteriostatic, as described previously.

[6] = test system: S. aureus SA16; format: cell-based, Staphylococcus aureus; details: S. aureus SA16 (MRSA)
Description: as §2

[7] = test system: S. aureus SA90; format: cell-based, Staphylococcus aureus; details: S. aureus SA90, sub-culture on MH agar, 99.9% death
Description: as §2

[8] = test system: S. aureus ATCC25923; format: cell-based, Staphylococcus aureus; details: S. aureus ATCC25923, CAMHB, 24 h, 37 °C, duplicate
Description: as §2

[9] = test system: S. aureus SA33; format: cell-based, Staphylococcus aureus; details: S. aureus SA33, sub-culture on MH agar, 99.9% death
Description: as §2

[10] = Serum stability assay; format: in vitro ADME; details: 25% human male serum, 37 °C, peptide 100 µM, analytical HPLC (C18) and LC/MS, duplicate
Description: Crude peptides were purified by semi-preparative HPLC on a Shimadzu system (Tokyo, Japan) using a C18 reversed phase column (10 × 250 mm, Phenomenex, Torrance, CA, USA). Solvent A contained 0.045% trifluoroacetic acid (TFA) in water. Elution was achieved using a linear gradient (5–35%) of solvent B (0.036% TFA in acetonitrile) for 120 min at 5 mL/min. The purity of the peptides was determined by analytical HPLC on a Shimadzu system using a C18 column (4.6 × 150 mm, Phenomenex, Torrance, CA, USA) with a linear gradient of solvent B (5–95%) for 30 min at 1 mL/min. Liquid chromatography-mass spectrometry (LC/MS) was performed using a C18 column (2.0 × 30 mm, Shimadzu) attached to analytical HPLC and an amaZon ion trap mass spectrometer (Bruker Daltonics) using ESI. Peptides were eluted using a linear gradient of solvent B (5–95%) for 15 min at 0.2 mL/min.
Peptide stability assays were performed in diluted serum as previously described with minor modifications. First, 2 mL of 25% human male serum was centrifuged at 3000× g for 10 min; the supernatant was collected and incubated for 15 min at 37 °C. Next, peptides were added to the serum to a final concentration of 100 µM. Then, 200 µL of samples were collected at different time points during the assays, which were performed in duplicate. Analyses were performed by LC/MS and analytical HPLC, as described above.

[11] = test system: E. faecium HSJRP8; format: cell-based, Enterococcus faecium
Description: as §2

[12] = test system: E. faecium VRE16; format: cell-based, Enterococcus faecium
Description: as §2

[13] = test system: E. coli CA4; format: cell-based, Escherichia coli; details: E. coli CA4 (commensal), CAMHB, 24 h, 37 °C, duplicate
Description: as §2

[14] = test system: E. coli ATCC35218; format: cell-based, Escherichia coli
Description: as §2

[15] = test system: S. epidermidis ATCC35984; format: cell-based, Staphylococcus epidermidis
Description: as §2

[16] = test system: K. pneumoniae NDM-1; format: cell-based, Klebsiella pneumoniae; details: K. pneumoniae NDM-1, sub-culture on MH agar, 99.9% death
Description: as §2

[17] = test system: K. pneumoniae ATCC700603; format: cell-based, Klebsiella pneumoniae; details: K. pneumoniae ATCC700603 (SHV-18), CAMHB, 24 h, 37 °C
Description: as §2

[18] = test system: K. pneumoniae ATCCBAA1705; format: cell-based, Klebsiella pneumoniae; details: K. pneumoniae ATCCBAA1705 (KPC), CAMHB, 24 h, 37 °C, duplicate
Description: as §2

[19] = 25% human male serum; details: 37 °C, up to 30 h

Compound: CC(C)C[C@H](NC(=O)[C@H](Cc1c[nH]cn1)NC(=O)[C@H](Cc1ccc(O)cc1)NC(=O)[C@H](CCCNC(=N)N)NC(=O)[C@H](Cc1ccc(O)cc1)NC(=O)[C@H](CCCCN)NC(=O)[C@@H](N)CCCCN)C(=O)N[C@@H](CCCCN)C(=O)N1CCC[C@H]1C(=O)N[C@@H](Cc1ccccc1)C(=O)N[C@@H](CSSC[C@H](NC(=O)[C@H](Cc1ccccc1)NC(=O)[C@@H]1CCCN1C(=O)[C@H](CCCCN)NC(=O)[C@H](CC(C)C)NC(=O)[C@H](Cc1c[nH]cn1)NC(=O)[C@H](Cc1ccc(O)cc1)NC(=O)[C@H](CCCNC(=N)N)NC(=O)[C@H](Cc1ccc(O)cc1)NC(=O)[C@H](CCCCN)NC(=O)[C@@H](N)CCCCN)C(=O)N[C@@H](CCCCN)C(=O)O)C(=O)N[C@@H](CCCCN)C(=O)O [des-Lys^13-(p-BthTX-I)2]
- HC50 (peptide concentration that produced 50% hemolysis) [1]: >128 µM
- MIC [2]: 32 µM (≈ 103 µg/mL)
- MIC [3]: >128 µM
- MIC [4]: 128 µM (≈ 412 µg/mL)

Compound: CC(C)C[C@H](NC(=O)[C@H](Cc1c[nH]cn1)NC(=O)[C@H](Cc1ccc(O)cc1)NC(=O)[C@H](CCCNC(=N)N)NC(=O)[C@H](Cc1ccc(O)cc1)NC(=O)[C@H](CCCCN)NC(=O)[C@@H](N)CCCCN)C(=O)N[C@@H](CCCCN)C(=O)N1CCC[C@H]1C(=O)N[C@@H](Cc1ccccc1)C(=O)N[C@@H](CS)C(=O)N[C@@H](CCCCN)C(=O)N[C@@H](CCCCN)C(=O)O [p-BthTX-I]
- MIC ([5]; S. aureus SA88 (MRSA, daptomycin heteroresistant), CAMHB, 24 h, 37 °C, duplicate): 512 µM (≈ 890 µg/mL)
- MBC ([5]; S. aureus SA88, sub-culture on MH agar, 99.9% death): >512 µM
- MIC ([6]; CAMHB, 24 h, 37 °C): 512 µM (≈ 890 µg/mL)
- MBC ([6]; sub-culture on MH agar, 99.9% death): 512 µM (≈ 890 µg/mL)
- MBC [7]: 512 µM (≈ 890 µg/mL)
- MIC [8]: >512 µM
- MBC [9]: >512 µM
- Incubation time after which the peptide was completely degraded in human serum [10]: 30 min
- MIC ([11]; E. faecium HSJRP8 (daptomycin resistant), CAMHB, 24 h, 37 °C, duplicate): 32 µM (≈ 55.7 µg/mL)
- MBC ([11]; E. faecium HSJRP8, sub-culture on MH agar, 99.9% death): >512 µM
- MIC ([12]; E. faecium VRE16 (vancomycin resistant), CAMHB, 24 h, 37 °C, duplicate): 128 µM (≈ 223 µg/mL)
- MBC ([12]; E. faecium VRE16, sub-culture on MH agar, 99.9% death): >512 µM
- MIC [13]: >512 µM
- MIC ([14]; E. coli ATCC35218, CAMHB, 24 h, 37 °C, duplicate): 512 µM (≈ 890 µg/mL)
- MBC ([14]; E. coli ATCC35218, sub-culture on MH agar, 99.9% death): >512 µM
- MIC ([15]; S. epidermidis ATCC35984, CAMHB, 24 h, 37 °C, duplicate): 128 µM (≈ 223 µg/mL)
- MBC ([15]; S. epidermidis ATCC35984, sub-culture on MH agar, 99.9% death): 512 µM (≈ 890 µg/mL)
- MBC [16]: >512 µM
- MIC [17]: >512 µM
- MIC [18]: >512 µM

Compound: KKYRYHLKPFCKK [(p-BthTX-I)2]
- cleaved bond [19]: Lys12-Lys13, major, 30 min; also recorded: Cys11-Lys12, major, 30 min
- fragment found [19]: (p-BthTX-I)2 minus one Lys residue, first_seen, 5 min; also recorded: (p-BthTX-I)2 minus two Lys residues, major, 5 min; also recorded: (p-BthTX-I)2 minus three Lys residues, 20 min
